Data: patent publication US5804583A, “Pyrimidinone derivatives fused to nitrogen heterocycles having a II antagonistic activity” (Istituto Luso Farmaco D'Italia, priority 1993, dated 1998)

Legend:
A II receptor [1] = assay: receptor binding test: displacement of 125I-Sar1-Ile8-AT II or [3H] AT II in the rat adrenal cortex
Excerpt: (§1) The compounds described in the present invention act as antagonists at the A II receptor level. For the characterization and the evaluation of the effectiveness of the compounds of the invention, in vitro tests (such as the inhibition of the A II-induced contraction in the rabbit aorta and the displacement of ^125 I-Sar^1 -Ile^8 -AT II or [^3 H] AT II in the rat adrenal cortex) and an in vivo test (the inhibition of the A II-induced pressory response in the ganglio-blocked normotensive rat) were selected.

A II receptor [2] = assay: inhibition of the A II-induced contraction in the rabbit aorta
Excerpt: as §1

Ki (A II receptor [1]): 5 nM
SMILES: CCCCc1c(Cc2ccc(-c3ccccc3-c3nnn[nH]3)cc2)c(=O)nc2n1C(C)C(=O)N2 (centres unmarked) [ex.6, 5-butyl-3-methyl-6-[[2'-(1H-tetrazol-5-yl)biphenyl-4-yl]methyl]imidazo[1,2-a]pyrimidin-2,7-dione]
PKB (A II receptor [2]): 10.4
